Measured values: patent publication US11459308B2 (priority 2016, dated 2022)

What was measured:
in vitro = settings: African green monkey
rVSV-EBOV GP = experiment: microbe, parasite or virus in culture; assay type: cell-based, Zaire Ebolavirus; settings: Zaire ebolavirus, read-out: rVSV-EBOV IC50
[1] = tested on: authentic EBOV (EBOV-Zaire 1995); experiment: microbe, parasite or virus in culture; assay type: cell-based, Ebola virus; settings: Zaire ebolavirus, Vero, 48 h, read-out: infectious EBOV-Z IC50
[2] = tested on: EBOV-GPCL/NPC1-C interaction; assay type: binding, human

CC(C)N(CCNc1ccc2ncn(C(c3ccccc3)c3ccccc3)c2c1)C(C)C [MBX 4253, N1-(1-benzhydryl-1H-benzo[d]imidazol-6-yl)-N2,N2-diisopropylethane-1,2-diamine 2,2,2-trifluoroacetate]
CC50 (in vitro): 95 µM | IC50 (rVSV-EBOV GP): 1.3 µM | IC50 [1]: 1.85 µM

O=[N+]([O-])c1ccc(N2CCN(Cc3ccncc3)CC2)cc1NC(c1ccccc1)c1ccccc1 [MBX 3562, 1-(benzhydrylamino)-5-[4-(pyridin-4-ylmethyl)piperazin-1-yl]-2-nitrobenzene]
CC50 (in vitro): > 200 µM | IC50 (rVSV-EBOV GP): 5.6 µM | IC50 [1]: 3.1 µM

CC(C)(C)N1CCN(c2ccc([N+](=O)[O-])c(NC(c3ccccc3)c3ccccc3)c2)CC1 [MBX 3625, 2-benzhydrylamino-4-(4-tert-butylpiperazin-1-yl)nitrobenzene]
CC50 (in vitro): > 100 µM | IC50 (rVSV-EBOV GP): 0.85 µM | IC50 [1]: 0.78 µM

CN(C)CCNc1ccc2ncn(C(c3ccccc3)c3ccccc3)c2c1 [MBX 4251, N^1-(1-benzhydryl-1H-benzo[d]imidazol-6-yl)-N^2,N^2-dimethylethane-1,2-diamine]
CC50 (in vitro): 105 µM | IC50 (rVSV-EBOV GP): 2.01 µM | IC50 [1]: 2.66 µM

O=[N+]([O-])c1ccc(N2CCN(C3CCCC3)CC2)cc1NC(c1ccccc1)c1ccccc1 [MBX 3580, 1-(benzhydrylamino)-5-(4-cyclopentylpiperazin-1-yl)-2-nitrobenzene]
CC50 (in vitro): > 100 µM | IC50 (rVSV-EBOV GP): 1.8 µM | IC50 [1]: 2.7 µM

CN(C)CCN(C)c1ccc([N+](=O)[O-])c(NC(c2ccccc2)c2ccccc2)c1 [MBX 3729, 2-(benzhydrylamino)-4-{[2-(dimethylamino)ethyl](methyl)amino}-1-nitrobenzene]
CC50 (in vitro): 10 µM | IC50 (rVSV-EBOV GP): < 0.1 µM | IC50 [1]: 1.3 µM

O=[N+]([O-])c1ccc(N2CCN(Cc3ccsc3)CC2)cc1NC(c1ccccc1)c1ccccc1 [MBX 3577, 1-(benzhydrylamino)-5-[4-(thiophen-3-ylmethyl)piperazin-1-yl]-2-nitrobenzene]
CC50 (in vitro): > 200 µM | IC50 (rVSV-EBOV GP): 6.5 µM | IC50 [1]: > 20 µM

O=[N+]([O-])c1ccc(N2CCN(C3CCC3)CC2)cc1NC(c1ccccc1)c1ccccc1 [MBX 3589, 1-(benzhydrylamino)-5-[4-(cyclobutyl)piperazin-1-yl]-2-nitrobenzene]
CC50 (in vitro): > 200 µM | IC50 (rVSV-EBOV GP): 0.83 µM | IC50 [1]: 8 µM

O=[N+]([O-])c1ccc(N2CCN(Cc3cccs3)CC2)cc1NC(c1ccccc1)c1ccccc1 [MBX 3576, 1-(benzhydrylamino)-5-[4-(thiophen-2-ylmethyl)piperazin-1-yl]-2-nitrobenzene]
CC50 (in vitro): > 200 µM | IC50 (rVSV-EBOV GP): 5.8 µM | IC50 [1]: > 20 µM

O=[N+]([O-])c1ccc(N2CCN(Cc3ccco3)CC2)cc1NC(c1ccccc1)c1ccccc1 [MBX 3575, 1-(benzhydrylamino)-5-[4-(furan-2-ylmethyl)piperazin-1-yl]-2-nitrobenzene]
CC50 (in vitro): > 200 µM | IC50 (rVSV-EBOV GP): 1.7 µM | IC50 [1]: > 20 µM

Cc1nc2ccc(N3CCN(C)CC3)cc2n1C(c1ccccc1)c1ccccc1 [MBX 3539, 1-benzhydryl-2-methyl-6-(4-methylpiperazin-1-yl)benzo[d]imidazole]
CC50 (in vitro): 77 µM | IC50 (rVSV-EBOV GP): 14 µM | IC50 [1]: > 20 µM

CN1CCN(c2cccc(NC(c3ccccc3)c3ccccc3)c2)CC1 [MBX 3567, 1-(benzhydrylamino)-3-(4-methylpiperazin-1-yl)benzene]
CC50 (in vitro): 19 µM | IC50 (rVSV-EBOV GP): 2.5 µM | IC50 [1]: 4.1 µM

CN(C)CCNc1ccc([N+](=O)[O-])c(NC(c2ccccc2)c2ccccc2)c1 [MBX 4334, N^3-benzhydryl-N^1-(2-(dimethylamino)ethyl)-4-nitrobenzene-1,3-diamine]
CC50 (in vitro): 16 µM | IC50 (rVSV-EBOV GP): 1.04 µM | IC50 [1]: 0.82 µM

CN(C)CCCNc1ccc([N+](=O)[O-])c(NC(c2ccccc2)c2ccccc2)c1 [MBX 4335]
CC50 (in vitro): 11 µM | IC50 (rVSV-EBOV GP): 0.79 µM | IC50 [1]: 0.48 µM

CC1CN(c2ccc3ncn(C(c4ccccc4)c4ccccc4)c3c2)CCN1C (centres unmarked) [MBX 4212, 1-benzhydryl-6-(3,4-dimethylpiperazin-1-yl)-1H-benzo[d]imidazole]
CC50 (in vitro): 170 µM | IC50 (rVSV-EBOV GP): 1.6 µM | IC50 [1]: 0.53 µM

CCCN1CCN(c2ccc([N+](=O)[O-])c(NC(c3ccccc3)c3ccccc3)c2)CC1 [MBX 3566, 1-(benzhydrylamino)-5-(4-propylpiperazin-1-yl)-2-nitrobenzene]
CC50 (in vitro): > 200 µM | IC50 (rVSV-EBOV GP): 2.4 µM | IC50 [1]: 1.6 µM

O=[N+]([O-])c1ccc(N2CCN(CCO)CC2)cc1NC(c1ccccc1)c1ccccc1 [MBX 3588, 1-(benzhydrylamino)-5-[4-(2-hydroxyethyl)piperazin-1-yl]-2-nitrobenzene]
CC50 (in vitro): 21 µM | IC50 (rVSV-EBOV GP): 1.4 µM | inhibition of GPCL-NPC1-C AlphaLISA compared with biotin-streptavidin AlphaLISA [2]: much more potently | selectivity for inhibition of the EBOV-GPCL/NPC1-C interaction vs. the biotin-streptavidin interaction [2]: about 10 fold | IC50 [1]: 0.73 µM

O=[N+]([O-])c1ccc(N2CCN(Cc3cccnc3)CC2)cc1NC(c1ccccc1)c1ccccc1 [MBX 3568, 1-(benzhydrylamino)-5-[4-(pyridin-3-ylmethyl)piperazin-1-yl]-2-nitrobenzene]
CC50 (in vitro): > 200 µM | IC50 (rVSV-EBOV GP): 4.5 µM | IC50 [1]: 4.5 µM

Cc1ccccc1C(Nc1cc(N2CCN(C)CC2)ccc1[N+](=O)[O-])c1ccccc1 (centres unmarked) [MBX 3633, 2-[phenyl(o-tolyl)methylamino]-4-(4-methylpiperazin-1-yl)nitrobenzene]
CC50 (in vitro): 15 µM | IC50 (rVSV-EBOV GP): 1.5 µM | IC50 [1]: 1.3 µM

O=[N+]([O-])c1ccc(N2CCN(CCCO)CC2)cc1NC(c1ccccc1)c1ccccc1 [MBX 3610, 2-(benzhydrylamino)-4-[4-(3-hydroxypropyl)piperazin-1-yl]nitrobenzene]
CC50 (in vitro): 17 µM | IC50 (rVSV-EBOV GP): 0.6 µM | IC50 [1]: 0.6 µM

CC(=O)Nc1ccc(N2CCN(C)CC2)cc1NC(c1ccccc1)c1ccccc1 [MBX 3525, 2-(benzhydrylamino)-4-(4-methylpiperazin-1-yl)-1-acetamidobenzene]
CC50 (in vitro): 100 µM | IC50 (rVSV-EBOV GP): 4 µM | IC50 [1]: > 20 µM

CN1CCN(c2ccc3nnn(C(c4ccccc4)c4ccccc4)c3c2)CC1 [MBX 3537A, 1-benzhydryl-6-(4-methylpiperazin-1-yl)-benzo[d][1,2,3]triazole]
CC50 (in vitro): 41 µM | IC50 (rVSV-EBOV GP): 2.3 µM | IC50 [1]: 2.3 µM

CCN1CCN(c2ccc([N+](=O)[O-])c(NC(c3ccccc3)c3ccccc3)c2)CC1 [MBX 3557, 1-(benzhydrylamino)-5-(4-ethylpiperazin-1-yl)-2-nitrobenzene]
CC50 (in vitro): 20 µM | IC50 (rVSV-EBOV GP): 1.4 µM | IC50 [1]: 1.9 µM

CN1CCN(c2ccc3ncn(C(c4ccccc4)c4ccccc4)c3c2)CC1 [MBX 3540, 1-benzhydryl-6-(4-methylpiperazin-1-yl)benzo[d]imidazole]
CC50 (in vitro): 58 µM | IC50 (rVSV-EBOV GP): 0.8 µM | IC50 [1]: 0.9 µM

O=[N+]([O-])c1ccc(N2CCN(Cc3ccccc3)CC2)cc1NC(c1ccccc1)c1ccccc1 [MBX 3569, 1-(benzhydrylamino)-5-(4-benzylpiperazin-1-yl)-2-nitrobenzene]
CC50 (in vitro): > 200 µM | IC50 (rVSV-EBOV GP): > 25 µM | IC50 [1]: > 20 µM

CC(C)(C)N1CCCN(c2ccc([N+](=O)[O-])c(NC(c3ccccc3)c3ccccc3)c2)CC1 [MBX 3748, 2-(benzhydrylamino)-4-[4-(tert-butyl)-1,4-diazepan-1-yl]-1-nitrobenzene]
CC50 (in vitro): 23 µM | IC50 (rVSV-EBOV GP): 0.25 µM | IC50 [1]: 0.7 µM

Cc1cccc(C(Nc2cc(N3CCN(C)CC3)ccc2[N+](=O)[O-])c2ccccc2)c1 (centres unmarked) [MBX 3634, 2-[phenyl(m-tolyl)methylamino]-4-(4-methylpiperazin-1-yl)nitrobenzene]
CC50 (in vitro): > 100 µM | IC50 (rVSV-EBOV GP): 3.4 µM | IC50 [1]: 3 µM

CCCCN1CCN(c2ccc([N+](=O)[O-])c(NC(c3ccccc3)c3ccccc3)c2)CC1 [MBX 3559, 1-(benzhydrylamino)-5-(4-butylpiperazin-1-yl)-2-nitrobenzene]
CC50 (in vitro): > 200 µM | IC50 (rVSV-EBOV GP): 3.6 µM | IC50 [1]: 1.7 µM

CN1CCN(c2ccc([N+](=O)[O-])c(NC(c3ccccc3)c3ccccc3)c2)CC1 [PPZ-1, N-benzhydryl-5-(4-methylpiperazin-1-yl)-2-nitroaniline]
CC50 (in vitro): 61 µM | IC50 (rVSV-EBOV GP): 1.2 µM | IC50 [1]: 2.3 µM

CN1CCN(c2cc(C#N)c([N+](=O)[O-])c(NC(c3ccccc3)c3ccccc3)c2)CC1 [MBX 3743, 2-(benzhydrylamino)-4-(4-methylpiperazin-1-yl)-6-cyano-1-nitrobenzene]
CC50 (in vitro): > 100 µM | IC50 (rVSV-EBOV GP): 2 µM | IC50 [1]: 2 µM

CC(C)N1CCN(c2ccc([N+](=O)[O-])c(NC(c3ccccc3)c3ccccc3)c2)CC1 [MBX 3561, 1-(benzhydrylamino)-5-(4-isopropylpiperazin-1-yl)-2-nitrobenzene]
CC50 (in vitro): 63 µM | IC50 (rVSV-EBOV GP): 1.5 µM | IC50 [1]: 1.7 µM

CN(C)CCCNc1ccc2ncn(C(c3ccccc3)c3ccccc3)c2c1 [MBX 4252, N^1-(1-benzhydryl-1H-benzo[d]imidazol-6-yl)-N^3,N^3-dimethylpropane-1,3-diamine]
CC50 (in vitro): 50 µM | IC50 (rVSV-EBOV GP): 3.93 µM | IC50 [1]: 8.62 µM

CN1CCN(c2ccc([N+](=O)[O-])c(NC(C)(C)c3ccccc3)c2)CC1 [MBX 3741, 2-(2-phenylpropan-2-ylamino)-4-(4-methylpiperazin-1-yl)-1-nitrobenzene]
CC50 (in vitro): 85 µM | IC50 (rVSV-EBOV GP): 3.1 µM | IC50 [1]: 10.3 µM

COCCN1CCN(c2ccc([N+](=O)[O-])c(NC(c3ccccc3)c3ccccc3)c2)CC1 [MBX 3591, 1-(benzhydrylamino)-5-[4-(2-methoxyethyl)piperazin-1-yl]-2-nitrobenzene]
CC50 (in vitro): > 100 µM | IC50 (rVSV-EBOV GP): 1.6 µM | IC50 [1]: 1.4 µM
